Data reported in the CheMixHub ionic liquid set.

Experiment: xn = mol fraction of the nth substance listed

CCCCCCCCCCCC[N+](C)(C)C.[Br-] + O
Conditions	electrical conductivity [S/m]	viscosity [mPa·s]
293.15 K, 100 kPa, x1 = 5.406e-05	–	0.982
293.15 K, 100 kPa, x1 = 0.0001081	–	0.984
293.15 K, 100 kPa, x1 = 0.0001622	–	0.985
293.15 K, 100 kPa, x1 = 0.0002162	–	0.987
293.15 K, 100 kPa, x1 = 0.0002702	–	0.989
293.15 K, 100 kPa, x1 = 0.0003242	–	0.991
293.15 K, 100 kPa, x1 = 0.0003783	–	0.993
293.15 K, 100 kPa, x1 = 0.0004323	–	0.995
293.15 K, 100 kPa, x1 = 0.0004863	–	0.999
293.15 K, 100 kPa, x1 = 0.0005403	–	1
293.15 K, 101 kPa, x1 = 5.406e-05	–	0.985
293.15 K, 101 kPa, x1 = 0.0001081	–	0.986
293.15 K, 101 kPa, x1 = 0.0001622	–	0.988
293.15 K, 101 kPa, x1 = 0.0002162	–	0.99
293.15 K, 101 kPa, x1 = 0.0002702	–	0.992
293.15 K, 101 kPa, x1 = 0.0003242	–	0.994
293.15 K, 101 kPa, x1 = 0.0003783	–	0.996
293.15 K, 101 kPa, x1 = 0.0004323	–	0.998
293.15 K, 101 kPa, x1 = 0.0004863	–	1.001
293.15 K, 101 kPa, x1 = 0.0005403	–	1.004
298 K, 101 kPa, x1 = 0.0001567	0.079	–
298 K, 101 kPa, x1 = 0.0001676	0.084	–
298 K, 101 kPa, x1 = 0.000182	0.09	–
298 K, 101 kPa, x1 = 0.0001874	0.093	–
298 K, 101 kPa, x1 = 0.0001946	0.096	–
298 K, 101 kPa, x1 = 0.0002054	0.099	–
298 K, 101 kPa, x1 = 0.0002144	0.105	–
298 K, 101 kPa, x1 = 0.0002252	0.111	–
298 K, 101 kPa, x1 = 0.000236	0.115	–
298.15 K, 100 kPa, x1 = 5.406e-05	–	0.853
298.15 K, 100 kPa, x1 = 0.0001081	–	0.855
298.15 K, 100 kPa, x1 = 0.0001622	–	0.855
298.15 K, 100 kPa, x1 = 0.0002162	–	0.857
298.15 K, 100 kPa, x1 = 0.0002702	–	0.86
298.15 K, 100 kPa, x1 = 0.0003242	–	0.86
298.15 K, 100 kPa, x1 = 0.0003783	–	0.861
298.15 K, 100 kPa, x1 = 0.0004323	–	0.863
298.15 K, 100 kPa, x1 = 0.0004863	–	0.864
298.15 K, 100 kPa, x1 = 0.0005403	–	0.866
298.15 K, 101 kPa, x1 = 4.307e-05	0.02398	–
298.15 K, 101 kPa, x1 = 5.406e-05	–	0.853
298.15 K, 101 kPa, x1 = 5.568e-05	0.0306	–
298.15 K, 101 kPa, x1 = 6.865e-05	0.03743	–
298.15 K, 101 kPa, x1 = 8.144e-05	0.04413	–
298.15 K, 101 kPa, x1 = 9.46e-05	0.0508	–
298.15 K, 101 kPa, x1 = 0.0001068	0.05714	–
298.15 K, 101 kPa, x1 = 0.0001081	–	0.854
298.15 K, 101 kPa, x1 = 0.0001198	0.06364	–
298.15 K, 101 kPa, x1 = 0.0001322	0.06995	–
298.15 K, 101 kPa, x1 = 0.0001456	0.07656	–
298.15 K, 101 kPa, x1 = 0.0001584	0.0829	–
298.15 K, 101 kPa, x1 = 0.0001622	–	0.856
298.15 K, 101 kPa, x1 = 0.0001704	0.08876	–
298.15 K, 101 kPa, x1 = 0.0001857	0.09628	–
298.15 K, 101 kPa, x1 = 0.0002009	0.1036	–
298.15 K, 101 kPa, x1 = 0.0002126	0.1093	–
298.15 K, 101 kPa, x1 = 0.0002162	–	0.858
298.15 K, 101 kPa, x1 = 0.0002243	0.1151	–
298.15 K, 101 kPa, x1 = 0.0002466	0.1259	–
298.15 K, 101 kPa, x1 = 0.0002495	0.1271	–
298.15 K, 101 kPa, x1 = 0.0002564	0.1305	–
298.15 K, 101 kPa, x1 = 0.0002702	–	0.859
298.15 K, 101 kPa, x1 = 0.0002992	0.1437	–
298.15 K, 101 kPa, x1 = 0.000323	0.1474	–
298.15 K, 101 kPa, x1 = 0.0003242	–	0.861
298.15 K, 101 kPa, x1 = 0.0003333	0.1488	–
298.15 K, 101 kPa, x1 = 0.0003783	–	0.862
298.15 K, 101 kPa, x1 = 0.0004323	–	0.864
298.15 K, 101 kPa, x1 = 0.0004863	–	0.861
298.15 K, 101 kPa, x1 = 0.0005403	–	0.867
303.15 K, 100 kPa, x1 = 5.406e-05	–	0.772
303.15 K, 100 kPa, x1 = 0.0001081	–	0.773
303.15 K, 100 kPa, x1 = 0.0001622	–	0.774
303.15 K, 100 kPa, x1 = 0.0002162	–	0.775
303.15 K, 100 kPa, x1 = 0.0002702	–	0.777
303.15 K, 100 kPa, x1 = 0.0003242	–	0.78
303.15 K, 100 kPa, x1 = 0.0003783	–	0.784
303.15 K, 100 kPa, x1 = 0.0004323	–	0.786
303.15 K, 100 kPa, x1 = 0.0004863	–	0.799
303.15 K, 100 kPa, x1 = 0.0005403	–	0.803
303.15 K, 101 kPa, x1 = 5.406e-05	–	0.772
303.15 K, 101 kPa, x1 = 0.0001081	–	0.772
303.15 K, 101 kPa, x1 = 0.0001622	–	0.774
303.15 K, 101 kPa, x1 = 0.0002162	–	0.775
303.15 K, 101 kPa, x1 = 0.0002702	–	0.778
303.15 K, 101 kPa, x1 = 0.0003242	–	0.78
303.15 K, 101 kPa, x1 = 0.0003783	–	0.785
303.15 K, 101 kPa, x1 = 0.0004323	–	0.786
303.15 K, 101 kPa, x1 = 0.0004863	–	0.799
303.15 K, 101 kPa, x1 = 0.0005403	–	0.802
308 K, 101 kPa, x1 = 0.0001513	0.078	–
308 K, 101 kPa, x1 = 0.0001694	0.085	–
308 K, 101 kPa, x1 = 0.0001892	0.094	–
308 K, 101 kPa, x1 = 0.0002486	0.121	–
308 K, 101 kPa, x1 = 0.0002774	0.135	–
308 K, 101 kPa, x1 = 0.0003945	0.155	–
308.15 K, 100 kPa, x1 = 5.406e-05	–	0.696
308.15 K, 100 kPa, x1 = 0.0001081	–	0.697
308.15 K, 100 kPa, x1 = 0.0001622	–	0.698
308.15 K, 100 kPa, x1 = 0.0002162	–	0.699
308.15 K, 100 kPa, x1 = 0.0002702	–	0.701
308.15 K, 100 kPa, x1 = 0.0003242	–	0.705
308.15 K, 100 kPa, x1 = 0.0003783	–	0.708
308.15 K, 100 kPa, x1 = 0.0004323	–	0.711
308.15 K, 100 kPa, x1 = 0.0004863	–	0.715
308.15 K, 100 kPa, x1 = 0.0005403	–	0.716
308.15 K, 101 kPa, x1 = 5.406e-05	–	0.696
308.15 K, 101 kPa, x1 = 0.0001081	–	0.697
308.15 K, 101 kPa, x1 = 0.0001622	–	0.698
308.15 K, 101 kPa, x1 = 0.0002162	–	0.699
308.15 K, 101 kPa, x1 = 0.0002702	–	0.701
308.15 K, 101 kPa, x1 = 0.0003242	–	0.705
308.15 K, 101 kPa, x1 = 0.0003783	–	0.709
308.15 K, 101 kPa, x1 = 0.0004323	–	0.711
308.15 K, 101 kPa, x1 = 0.0004863	–	0.714
308.15 K, 101 kPa, x1 = 0.0005403	–	0.716
313.15 K, 100 kPa, x1 = 5.406e-05	–	0.611
313.15 K, 100 kPa, x1 = 0.0001081	–	0.612
313.15 K, 100 kPa, x1 = 0.0001622	–	0.614
313.15 K, 100 kPa, x1 = 0.0002162	–	0.617
313.15 K, 100 kPa, x1 = 0.0002702	–	0.617
313.15 K, 100 kPa, x1 = 0.0003242	–	0.62
313.15 K, 100 kPa, x1 = 0.0003783	–	0.624
313.15 K, 100 kPa, x1 = 0.0004323	–	0.626
313.15 K, 100 kPa, x1 = 0.0004863	–	0.628
313.15 K, 100 kPa, x1 = 0.0005403	–	0.63
318 K, 101 kPa, x1 = 0.0001513	0.08	–
318 K, 101 kPa, x1 = 0.0001748	0.09	–
318 K, 101 kPa, x1 = 0.0001964	0.101	–
318 K, 101 kPa, x1 = 0.0002252	0.113	–
318 K, 101 kPa, x1 = 0.0002486	0.125	–
318 K, 101 kPa, x1 = 0.000317	0.152	–
318 K, 101 kPa, x1 = 0.0003369	0.157	–
318 K, 101 kPa, x1 = 0.0003945	0.165	–
318 K, 101 kPa, x1 = 0.0004305	0.169	–
318.15 K, 100 kPa, x1 = 5.406e-05	–	0.582
318.15 K, 100 kPa, x1 = 0.0001081	–	0.584
318.15 K, 100 kPa, x1 = 0.0001622	–	0.585
318.15 K, 100 kPa, x1 = 0.0002162	–	0.587
318.15 K, 100 kPa, x1 = 0.0002702	–	0.588
318.15 K, 100 kPa, x1 = 0.0003242	–	0.589
318.15 K, 100 kPa, x1 = 0.0003783	–	0.59
318.15 K, 100 kPa, x1 = 0.0004323	–	0.591
318.15 K, 100 kPa, x1 = 0.0004863	–	0.592
318.15 K, 100 kPa, x1 = 0.0005403	–	0.593
